The source of these data is ChEMBL document CHEMBL1129352, “Synthesis and biological evaluation of new imidazole, pyrimidine, and purine derivatives and analogs as inhibitors of xanthine oxidase” (J Med Chem, 1996).

Experiment [1] has as its target T1, Xanthine dehydrogenase/oxidase (Homo sapiens, UniProt P47989). The experiment can be described thus: Inhibitory activity against Xanthine Oxidase.
Experiment [2] addresses Xanthine dehydrogenase/oxidase (Bos taurus) (UniProt P80457). The experiment can be described thus: Inhibitory activity against Xanthine Oxidase.
Experiment [3] concerns the target T1, Xanthine dehydrogenase/oxidase. The experiment can be described thus: Inhibitory activity against Xanthine Oxidase; Inactive.

Each structure is given as a SMILES string.

T1 sequence (P47989 whole entry): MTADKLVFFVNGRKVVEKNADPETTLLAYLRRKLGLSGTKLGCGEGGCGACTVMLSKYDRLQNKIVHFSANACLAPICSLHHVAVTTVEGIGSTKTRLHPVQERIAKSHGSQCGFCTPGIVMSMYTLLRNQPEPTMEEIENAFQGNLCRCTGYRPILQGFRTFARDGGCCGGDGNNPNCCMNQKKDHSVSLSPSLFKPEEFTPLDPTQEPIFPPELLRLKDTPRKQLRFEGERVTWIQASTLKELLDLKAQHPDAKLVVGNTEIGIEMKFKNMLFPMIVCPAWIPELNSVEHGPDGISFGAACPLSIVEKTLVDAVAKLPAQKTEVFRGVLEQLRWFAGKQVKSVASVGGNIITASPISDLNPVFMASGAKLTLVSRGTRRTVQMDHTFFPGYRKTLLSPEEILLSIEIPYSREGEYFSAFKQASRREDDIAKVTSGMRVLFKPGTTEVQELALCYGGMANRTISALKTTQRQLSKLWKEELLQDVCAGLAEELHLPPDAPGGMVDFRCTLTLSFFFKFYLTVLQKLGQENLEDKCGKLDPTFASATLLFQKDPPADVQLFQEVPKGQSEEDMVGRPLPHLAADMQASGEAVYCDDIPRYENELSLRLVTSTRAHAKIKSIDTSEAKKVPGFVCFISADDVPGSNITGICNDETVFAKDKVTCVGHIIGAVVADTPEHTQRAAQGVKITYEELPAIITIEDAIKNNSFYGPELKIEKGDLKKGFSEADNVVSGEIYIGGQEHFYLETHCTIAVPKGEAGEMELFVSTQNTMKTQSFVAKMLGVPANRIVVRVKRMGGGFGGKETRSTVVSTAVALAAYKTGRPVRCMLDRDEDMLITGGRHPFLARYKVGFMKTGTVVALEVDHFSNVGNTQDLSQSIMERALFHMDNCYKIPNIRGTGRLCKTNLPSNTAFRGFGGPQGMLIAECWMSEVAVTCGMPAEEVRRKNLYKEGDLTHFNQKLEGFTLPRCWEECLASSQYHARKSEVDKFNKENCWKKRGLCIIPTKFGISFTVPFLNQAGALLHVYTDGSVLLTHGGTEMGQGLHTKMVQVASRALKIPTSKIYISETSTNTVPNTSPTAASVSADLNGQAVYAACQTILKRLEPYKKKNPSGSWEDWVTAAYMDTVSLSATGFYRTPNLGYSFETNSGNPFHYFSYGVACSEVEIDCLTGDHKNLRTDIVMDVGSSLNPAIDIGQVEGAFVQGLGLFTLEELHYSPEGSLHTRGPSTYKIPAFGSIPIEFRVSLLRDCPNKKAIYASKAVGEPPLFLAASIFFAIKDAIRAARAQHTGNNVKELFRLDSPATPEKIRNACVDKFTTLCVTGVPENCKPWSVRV
Chain of Xanthine dehydrogenase/oxidase (Bos taurus) (P80457 whole entry, looked up): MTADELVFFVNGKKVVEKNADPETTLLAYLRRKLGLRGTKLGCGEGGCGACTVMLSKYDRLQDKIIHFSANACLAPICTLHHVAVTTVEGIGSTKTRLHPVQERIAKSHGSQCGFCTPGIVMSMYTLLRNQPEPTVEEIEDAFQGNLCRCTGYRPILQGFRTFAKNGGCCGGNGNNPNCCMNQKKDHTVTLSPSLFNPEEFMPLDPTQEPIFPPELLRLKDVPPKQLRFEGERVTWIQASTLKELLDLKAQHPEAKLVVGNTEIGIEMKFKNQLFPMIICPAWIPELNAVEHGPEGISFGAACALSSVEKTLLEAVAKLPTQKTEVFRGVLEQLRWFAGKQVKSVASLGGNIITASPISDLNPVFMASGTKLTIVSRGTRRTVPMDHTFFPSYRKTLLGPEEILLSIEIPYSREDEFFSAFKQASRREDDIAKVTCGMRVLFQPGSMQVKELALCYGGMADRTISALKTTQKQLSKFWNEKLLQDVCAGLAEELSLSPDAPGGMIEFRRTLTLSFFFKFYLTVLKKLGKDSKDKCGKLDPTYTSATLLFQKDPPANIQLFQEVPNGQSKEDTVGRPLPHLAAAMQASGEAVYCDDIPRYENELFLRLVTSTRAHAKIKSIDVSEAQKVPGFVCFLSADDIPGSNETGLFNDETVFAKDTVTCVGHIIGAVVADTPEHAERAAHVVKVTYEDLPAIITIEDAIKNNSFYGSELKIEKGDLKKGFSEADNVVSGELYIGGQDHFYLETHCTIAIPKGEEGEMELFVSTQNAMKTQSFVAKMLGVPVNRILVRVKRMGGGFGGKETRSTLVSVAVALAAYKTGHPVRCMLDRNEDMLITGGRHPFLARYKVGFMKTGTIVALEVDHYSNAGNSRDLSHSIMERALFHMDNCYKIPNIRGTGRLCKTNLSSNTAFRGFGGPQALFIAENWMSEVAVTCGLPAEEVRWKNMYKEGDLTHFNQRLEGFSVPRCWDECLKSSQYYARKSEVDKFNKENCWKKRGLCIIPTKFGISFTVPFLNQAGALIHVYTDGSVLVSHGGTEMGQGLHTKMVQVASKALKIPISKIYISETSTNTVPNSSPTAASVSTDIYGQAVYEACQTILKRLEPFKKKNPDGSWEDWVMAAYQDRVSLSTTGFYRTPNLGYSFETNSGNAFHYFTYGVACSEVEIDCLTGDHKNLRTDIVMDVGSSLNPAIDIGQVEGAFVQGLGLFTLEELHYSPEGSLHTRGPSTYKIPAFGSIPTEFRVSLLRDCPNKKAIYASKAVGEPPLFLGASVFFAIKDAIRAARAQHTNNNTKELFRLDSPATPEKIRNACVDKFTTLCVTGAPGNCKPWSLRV

In experiment [1], `CCCCSc1nc2nc[nH]c2c(=O)[nH]1` yielded an IC50 of 3.88 µM and a Ki of 0.176 µM.

Regarding `CCCCCc1nc2n[nH]cc2c(=O)[nH]1`, the 50% inhibitory concentration (IC50) in experiment [1] was more than 100 µM. Same read-out and setting: with `CCCC(=O)Nc1nc2nc[nH]c2c(=O)[nH]1` the figure was more than 100 µM; with `CCCCCCSc1nc(N)c(NC=O)c(=O)[nH]1`, more than 100 µM. For the compound `O=c1nc2[nH]c(=S)[nH]c2c2n1CCS2`, the Ki in experiment [1] worked out at 1.86 µM. Same read-out and setting: with `Oc1nc2nc3n(c(O)c-2n1)CCS3` the figure was 40.3 µM.

Consider `Oc1nc2nc(S)nc-2c2n1CCCS2`, for which, in experiment [2], the Ki is 0.89 µM. Consider `CCCCCCOC(=O)C(=O)Nc1nc[nH]c1C(N)=O`, for which, in experiment [1], the IC50 was 1.11 µM and the affinity corresponds to a Ki of 0.26 µM.

For `CSc1nc2nc(-c3ccccc3)[nH]c2c(=O)[nH]1`, affinity in experiment [1] was put at a Ki of 5.7 µM. As to `Oc1nc2nc3n(c(O)c-2n1)CCCS3`, affinity in experiment [1] was put at a Ki of 66.8 µM. As for `CCCCCC(=O)Nc1nc(O)c2[nH]cnc2n1`, in experiment [3], the IC50 entry is on record as “Not Active”. Regarding `CCc1nc(O)c2c[nH]nc2n1`, in experiment [1], the IC50 is more than 100 µM. The same measure, in the same setting: as for `CCCc1nc2n[nH]cc2c(=O)[nH]1`, the figure is more than 100 µM.

Turning to `O=c1[nH]c2nc(S(=O)(=O)Cc3ccccc3)[nH]c(=O)c2[nH]1`, the Ki in experiment [1] worked out at 77.8 µM. As to `CCCCCCSc1nc(O)c2[nH]c(O)nc2n1`, the Ki in experiment [1] was found to be 0.16 µM. As to `CCCCSc1nc(N)cc(O)n1`, in experiment [3], the IC50 result is on record as “Not Active”. In experiment [1], `CCCCCOC(=O)C(=O)Nc1[nH]cnc1C(N)=O` returned an IC50 of 1.92 µM and a Ki of 1.04 µM. Regarding `CCCCc1nc(O)c2c[nH]nc2n1`, in experiment [1], the IC50 is more than 100 µM. With `CCCCCCSc1nc2nc(-c3ccccc3)[nH]c2c(=O)[nH]1`, in experiment [1], the affinity corresponds to a Ki of 0.48 µM. `Oc1c2nc(S)nc-2nc2n1CCCS2` returned a Ki in experiment [1] of 131 µM. `Oc1nc2nc(-c3ccccc3)nc-2c2n1CCCS2`: the affinity in experiment [1], expressed as Ki, was 93 µM.

For the compound `CCCCCCNc1nc(O)c2[nH]cnc2n1`, in experiment [1], it took 30.5 µM to reach half-maximal inhibition (IC50) and the Ki amounted to 32.1 µM. With `Oc1nc2nc(O)n3c(c-2n1)SCC3`, the Ki in experiment [1] worked out at 1.26 µM. The compound `Oc1c2nc(S)nc-2nc2n1CCS2` displayed a Ki in experiment [1] of 24.4 µM.

In experiment [1], `Oc1nc2nnnc-2c2n1CCCS2` gave a Ki of more than 100 µM.

As to `Oc1nc2nc(O)n3c(c-2n1)SCCC3`, the Ki in experiment [1] turned out to be 0.33 µM. In experiment [1], `CCCCNc1nc(O)c2[nH]cnc2n1` displayed an IC50 of 25.5 µM and a Ki of 17.7 µM. Consider `CCCCSc1nc(N)c(NC=O)c(=O)[nH]1`, for which the IC50 in experiment [1] was more than 100 µM. Take `CCCCCCSc1nc(N)cc(O)n1`: in experiment [3], the IC50 entry is “Not Active”. As for `CCCCC(=O)Nc1nc(O)c2[nH]cnc2n1`, in experiment [3], the IC50 result was “Not Active”. In experiment [1], `CCCCCNc1nc2nc[nH]c2c(=O)[nH]1` returned an IC50 of 28.3 µM and a Ki of 25.7 µM. As for `O=c1[nH]c(=S)[nH]c2nc(-c3ccccc3)[nH]c12`, the affinity in experiment [1], expressed as Ki, was 2.07 µM. `CCCCCSc1nc(N)c(NC=O)c(=O)[nH]1`: in experiment [1], the IC50 was more than 100 µM. On to `CCCCCSc1nc(N)cc(O)n1`, for which the IC50 result in experiment [3] is given as “Not Active”. In experiment [1], `CCCCCC(=O)Nc1nc[nH]c1C(N)=O` returned an IC50 of 12.6 µM and a Ki of 2.56 µM. In the case of `O=S1(=O)CCCn2c1nc1nc(O)nc-1c2O`, the Ki result in experiment [3] is reported as “Not Active”. Turning to `CCCCOC(=O)C(=O)Nc1nc[nH]c1C(N)=O`, in experiment [1], the IC50 is 4.29 µM and the Ki came to 1.06 µM.

For `CC1CSc2nc3nc(S)nc-3c(O)n2C1` (stereo not drawn), in experiment [1], the inhibition constant (Ki) is more than 100 µM. `O=c1[nH]c2nc(SCc3ccccc3)[nH]c(=O)c2[nH]1` yielded a Ki in experiment [1] of 4.49 µM. The same measure, in the same setting: with `CC1CSc2nc3nc(O)nc-3c(O)n2C1` (stereo not drawn) the figure was more than 100 µM.
